According to US12252481B2, “Anti-viral compounds” (Aligos Therapeutics, Inc., priority 2021, dated 2025):
Like-named read-outs stand apart in the source and are kept apart here.

Legend:
[1] = biological target: T1, SARS-Cov-2 3CLpro (Severe acute respiratory syndrome coronavirus 2, UniProt P0DTD1); assay: biochemical; settings: 3CLpro, 30 mins preincubation, SAMDI-MS
T1 construct: 3CLpro and HRV3C was added using a Multidrop Combi

[2] = biological target: T2, HRV3C (Human rhinovirus 14, UniProt P03303); assay: biochemical; design: species or system HRV; settings: HRV3C, 30 mins preincubation, SAMDI-MS; read-out: HRV IC50 (bound)
T2 construct: 3CLpro and HRV3C was added using a Multidrop Combi
T2 sequence (P03303 1538-1719): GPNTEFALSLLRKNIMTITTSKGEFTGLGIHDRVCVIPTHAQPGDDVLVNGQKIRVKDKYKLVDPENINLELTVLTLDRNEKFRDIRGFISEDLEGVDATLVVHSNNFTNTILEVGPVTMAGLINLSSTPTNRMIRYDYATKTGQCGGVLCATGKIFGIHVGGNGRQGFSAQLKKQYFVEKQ

[3] = tested on: human beta-coronavirus OC43; assay: OC43 coronavirus antiviral assay in HeLa cells (cytopathic effect, cell-titer-glo); type: cell-based; settings: Betacoronavirus 1, OC43, HeLa, 144 h, 6 days at 33° C.
[4] = tested on: B.1.1.7 lineage SARS-CoV-2; assay: microbe, parasite or virus in culture; type: cell-based; settings: Severe acute respiratory syndrome coronavirus 2, 96 h, read-out: A549-dual_ACE2_TMPRSS2 (EC50)
[5] = biological target: T3, human cathepsin L (Homo sapiens, UniProt P07711); assay: Cathepsin L assay (Z-FR-AMC fluorescence); type: biochemical; settings: 10 pM human cathepsin L, 30 mins preincubation, Z-FR-AMC 2 μM
T3 construct: purchased R&D Systems
T3 sequence (P07711 114-333): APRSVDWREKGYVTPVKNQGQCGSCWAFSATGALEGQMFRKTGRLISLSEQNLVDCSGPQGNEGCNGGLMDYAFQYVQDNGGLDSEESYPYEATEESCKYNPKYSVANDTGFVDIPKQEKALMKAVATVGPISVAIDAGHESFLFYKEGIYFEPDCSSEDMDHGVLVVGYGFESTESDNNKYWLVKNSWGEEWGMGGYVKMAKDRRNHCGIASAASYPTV
Description: For the cathepsin L assay, 10 pM of human cathepsin L (R&D Systems; Minneapolis, MN) was preincubated for 30 mins with test compounds. Reactions were initiated by the addition of a peptide substrate Z—FR-AMC (final concentration 2 μM, Anaspec; Fremont, CA). Fluorescence was measured at 2-minute intervals for 30 mins using a 355/460 excitation/emission filter module on an Envision plate reader (Perkin Elmer; Waltham, MA). The IC50 values were calculated for each assay by fitting the curves using a four-parameter equation in GraphPad Prism.

[6] = read-out: SARS-Cov-2 IC50 (class)

SMILES | IC50 [1, 6] [nM] | IC50 [2] [nM] | EC50 ([3]; read-out: EC50 (class)) [nM] | EC50 [4] [nM] | IC50 [5] [nM] | IC50 ([1]; read-out: SARS-Cov-2 IC50 (bound)) [nM] | EC50 ([3]; read-out: EC50 (bound)) [nM] | EC50 ([4]; […], numeric bounds given instead of class symbols) [nM]
CC(C)(C)[C@H](NC(=O)C(F)(F)F)C(=O)N1C[C@@H]2[C@H]3CC[C@H](CC3)[C@@H]2[C@H]1C(=O)N[C@H](C#N)C[C@@H]1CCNC1=O (mixture of isomers) [Compound 71] | < 20 | > 10000 | 100 to 1000 | < 100 | ≥ 10000 |  |  | 
CC(C)(C)[C@H](NC(=O)C(F)(F)F)C(=O)N1C[C@H]2[C@@H]([C@H]1C(=O)N[C@H](C#N)CC1CC3(CC(F)(F)C3)NC1=O)[C@H]1C=C[C@@H]2C1 (mixture of isomers) [Example 83, (1R,2S,3S,6R,7S)—N-[(1S)-1-cyano-2-{2,2-difluoro-6-oxo-5-azaspiro[3.4]octan-7-yl}ethyl]-4-[(2S)-3,3-dimethyl-2-(2,2,2-trifluoroacetamido)butanoyl]-4-azatricyclo[5.2.1.0^{2,6}]dec-8-ene-3-carboxamide] | < 20 | > 10000 | < 100 | < 100 | ≥ 10000 |  |  | 
CC(C)(C)[C@H](NC(=O)C(F)(F)F)C(=O)N1C[C@@H]2[C@@H]([C@@H]3CC[C@H]2O3)[C@@H]1C(=O)N[C@H](C#N)C[C@@H]1CCNC1=O (relative stereo) [Compound 58a] |  | > 10000 |  |  | ≥ 10000 | > 10000 | > 10000 | > 10000
CC(C)(C)[C@H](NC(=O)C(F)(F)F)C(=O)N1C[C@H]2[C@@H]([C@H]1C(=O)N[C@H](C#N)C[C@@H]1CCNC1=O)[C@H]1CC[C@@H]2O1 (relative stereo) [Compound 58b] | 200 to 2000 | > 10000 | 1000 to 10000 | 1000 to 10000 | ≥ 10000 |  |  | 
CC(C)(C)[C@H](NC(=O)C(F)(F)F)C(=O)N1C[C@@H]2[C@@H]([C@@H]3C=C[C@H]2CC3)[C@@H]1C(=O)N[C@H](C#N)C[C@@H]1CCNC1=O (relative stereo) [Compound 59a, (1R*,3aS*,4R*,7S*,7aR*)-N-((S)-1-cyano-2-((S)-2-oxopyrrolidin-3-yl)ethyl)-2-((S)-3,3-dimethyl-2-(2,2,2-trifluoroacetamido)butanoyl)-2,3,3a,4,7,7a-hexahydro-1H-4,7-ethanoisoindole-1-carboxamide] | 200 to 2000 | > 10000 |  | 1000 to 10000 | ≥ 10000 |  | > 10000 | 
CC(C)(C)[C@H](NC(=O)C(F)(F)F)C(=O)N1C[C@H]2[C@@H]([C@H]1C(=O)N[C@H](C#N)C[C@@H]1CCNC1=O)[C@H]1C=C[C@@H]2C1F (stereo in doubt) [Example 91, (1S,3aS,4S,7R,7aR,8S)—N-((S)-1-cyano-2-((S)-2-oxopyrrolidin-3-yl)ethyl)-2-((S)-3,3-dimethyl-2-(2,2,2-trifluoroacetamido)butanoyl)-8-fluoro-2,3,3a,4,7,7a-hexahydro-1H-4,7-methanoisoindole-1-carboxamide] | < 20 | > 500 | < 100 | < 100 | ≥ 10000 |  |  | 
CC(C)(C)[C@H](NC(=O)C(F)(F)F)C(=O)N1C[C@H]2[C@@H]([C@H]1C(=O)N[C@H](C#N)C[C@@H]1Oc3ccccc3NC1=O)[C@H]1C=C[C@@H]2C1 [Compound 52, (1S,3aR,4S,7R,7aS)-N-((S)-1-cyano-2-((S)-3-oxo-3,4-dihydro-2H-benzo[b][1,4]oxazin-2-yl)ethyl)-2-((S)-3,3-dimethyl-2-(2,2,2-trifluoroacetamido)butanoyl)-2,3,3a,4,7,7a-hexahydro-1H-4,7-methanoisoindole-1-carboxamide] | < 20 | > 10000 | 100 to 1000 | 100 to 1000 | ≥ 10000 |  |  | 
COC1(C(=O)N[C@H](C(=O)N2C[C@H]3[C@@H]([C@H]2C(=O)N[C@H](C#N)C[C@@H]2CCNC2=O)[C@H]2C=C[C@@H]3C2)C(C)(C)C)CC1 [Compound 126] | 20 to 200 | > 500 | 100 to 1000 | 100 to 1000 |  |  |  | 
COC1(C(=O)N[C@H](C(=O)N2C[C@H]3[C@@H]([C@H]2C(=O)N[C@H](C#N)C[C@@H]2CCNC2=O)[C@H]2C=C[C@@H]3C2)C(C)(C)C)CCC1 [Compound 127] | 20 to 200 | > 500 | 100 to 1000 | < 100 |  |  |  | 
CC(C)(C)[C@H](NC(=O)C(F)(F)C(F)(F)F)C(=O)N1C[C@@H]2[C@H]3C[C@@H]([C@@H]2[C@H]1C(=O)N[C@H](C#N)C[C@@H]1CCNC1=O)[C@H](F)C3 [Example 87, (1S,3aR,4S,6R,7S,7aR)—N-((S)-1-cyano-2-((S)-2-oxopyrrolidin-3-yl)ethyl)-2-((S)-3,3-dimethyl-2-(2,2,3,3,3-pentafluoropropanamido)butanoyl)-6-fluorooctahydro-1H-4,7-methanoisoindole-1-carboxamide] | < 20 | > 500 | < 100 | < 100 |  |  |  | 
CC(C)(C)[C@H](NC(=O)C(F)(F)F)C(=O)N1C[C@@H]2[C@@H]3C=C[C@@H]([C@H]4C[C@@H]34)[C@@H]2C1C(=O)N[C@H](C#N)C[C@@H]1CCNC1=O (stereo partly drawn) [Example 88, (3aR,4R,4aR,5aS,6S,6aS)-N-((S)-1-cyano-2-((S)-2-oxopyrrolidin-3-yl)ethyl)-2-((S)-3,3-dimethyl-2-(2,2,2-trifluoroacetamido)butanoyl)-1,2,3,3a,4,4a,5,5a,6,6a-decahydro-4,6-ethenocyclopropa[f]isoindole-1-carboxamide] | < 20 | > 10000 | 100 to 1000 | 100 to 1000 |  |  |  | 
CC(C)(C)[C@H](NC(=O)C(F)(F)F)C(=O)N1C[C@H]2[C@@H]([C@H]1C(=O)N[C@H](C#N)C[C@@H]1CCNC1=O)[C@H]1C=C[C@@H]2C1=O [Example 89, (1R,2R,3S,6S,7S)—N-[(1S)-1-cyano-2-[(3S)-2-oxopyrrolidin-3-yl]ethyl]-4-[(2S)-3,3-dimethyl-2-(2,2,2-trifluoroacetamido)butanoyl]-10-oxo-4-azatricyclo[5.2.1.0^{2,6}]dec-8-ene-3-carboxamide] | < 20 | > 10000 | 100 to 1000 | 100 to 1000 |  |  |  | 
CC(C)(C)[C@H](NC(=O)C(F)(F)F)C(=O)N1C[C@H]2[C@@H]([C@H]1C(=O)N[C@H](C#N)C[C@@H]1CCNC1=O)[C@H]1CC[C@@H]2C1(F)F [Example 92, (1S,3aS,4S,7R,7aR)—N-((S)-1-cyano-2-((S)-2-oxopyrrolidin-3-yl)ethyl)-2-((S)-3,3-dimethyl-2-(2,2,2-trifluoroacetamido)butanoyl)-8,8-difluorooctahydro-1H-4,7-methanoisoindole-1-carboxamide] | 20 to 200 | > 500 | 100 to 1000 | 100 to 1000 |  |  |  | 
C[C@H]1[C@H]2[C@@H]([C@@H](C(=O)N[C@H](C#N)C[C@@H]3CCNC3=O)N1C(=O)[C@@H](NC(=O)C(F)(F)F)C(C)(C)C)[C@H]1C=C[C@@H]2C1 [Example 93, (1R,2S,3S,5S,6R,7S)—N-[(1S)-1-cyano-2-[(3S)-2-oxopyrrolidin-3-yl]ethyl]-4-[(2S)-3,3-dimethyl-2-(2,2,2-trifluoroacetamido)butanoyl]-5-methyl-4-azatricyclo[5.2.1.0^{2,6}]dec-8-ene-3-carboxamide] | < 20 | > 500 | < 100 | < 100 |  |  |  | 
N#C[C@H](C[C@@H]1CCNC1=O)NC(=O)[C@@H]1[C@@H]2[C@H](CN1C(=O)[C@H](CC1CCC1)NC(=O)C(F)(F)F)[C@@H]1C=C[C@H]2C1 [Example 95] | < 20 | > 10000 | < 100 | < 100 |  |  |  | 
CC(C)(C)[C@H](NC(=O)C(F)(F)F)C(=O)N1C[C@@H]2[C@H]3C[C@H](C[C@@H]3F)[C@@H]2[C@H]1C(=O)N[C@H](C#N)C[C@@H]1CCNC1=O [Example 96] | 20 to 200 | > 500 | 100 to 1000 | 100 to 1000 |  |  |  | 
C=C(C)C(C)(C)[C@H](NC(=O)C(F)(F)F)C(=O)N1C[C@H]2[C@@H]([C@H]1C(=O)N[C@H](C#N)C[C@@H]1CCNC1=O)[C@H]1C=C[C@@H]2C1 [Example 97] | < 20 | > 10000 | < 100 | < 100 |  |  |  | 
C[C@@H](OC(F)F)[C@H](NC(=O)C(F)(F)F)C(=O)N1C[C@H]2[C@@H]([C@H]1C(=O)N[C@H](C#N)C[C@@H]1CCNC1=O)[C@H]1C=C[C@@H]2C1 [Example 98, (1S,3aR,4S,7R,7aS)-N-((S)-1-cyano-2-((S)-2-oxopyrrolidin-3-yl)ethyl)-2-(O-(difluoromethyl)-N-(2,2,2-trifluoroacetyl)-L-threonyl)-2,3,3a,4,7,7a-hexahydro-1H-4,7-methanoisoindole-1-carboxamide] | < 20 | > 500 | < 100 | < 100 |  |  |  | 
